# System: focal adhesions in HeLa cells
# Test: FA area
# Format: cell-based, human
# Set-up: AV areaFA: unit not given here
# Conditions: HeLa, TLN1-KD, mTLN1 rescue; mean of per-cell averages, Count 12
# Method: HeLa Kyoto cell line was described previously ([Lansbergen et al., 2006]; [Mimori-Kiyosue et al., 2005]). HEK293T cells were purchased from ATCC; culture and transfection of DNA and siRNA into these cell lines was performed as previously described ([van der Vaart et al., 2013]). HaCaT cells were purchased at Cell Line Service (Eppelheim, Germany) and cultured according to manufacturer’s instructions. The cell lines were routinely checked for mycoplasma contamination using LT07-518 Mycoalert assay (Lonza, Switzerland).The identity of the cell lines was monitored by immunofluorescence-staining-based analysis with multiple markers. Blebbistatin was purchased from Enzo Life Sciences and used at 50 μM. […]
# For presentation, images were adjusted for brightness and processed by Gaussian blur and Unsharp mask filter using ImageJ 1.47v (NIH). Fluorescence profiles are values measured by line scan analysis in ImageJ, normalized by background average fluorescence, expressed as a factor of the baseline value obtained for individual channel and plotted as a function of maximum length factor of the selection line (distance ratio). Protein clustering at the cell edge is the ratio of the total fluorescence in the first 5 μm from the cell edge to the next 5 μm measured by line scan analysis in ImageJ after thresholding for cell outline marking and out-of-cell region value assigned to zero. […]
substance,measurement,value
GFP-talin1-G1404L: GFP-tagged mouse talin1 with single point mutation G1404L,AV areaFA,1.146

# — article PMC4995097, “Talin-KANK1 interaction controls the recruitment of cortical microtubule stabilizing complexes to focal adhesions” (eLife, 2016)
